Measurements: patent US20240287047A1, “PESTICIDALLY ACTIVE DIAZINE-AMIDE COMPOUNDS” (SYNGENTA CROP PROTECTION AG, priority 2021, published 2024)

Legend:
Format in all cases: in vivo
Spodoptera littoralis = experiment: Example B5: Spodoptera littoralis (Egyptian cotton leaf worm), cotton leaf discs, L1 larvae; conditions: foliar, 72 h, application rate of 200 ppm, 3 days after infestation, read-out: control in at least one of the three categories (mortality, anti-feedant effect, or growth inhibition)
Procedure: Cotton leaf discs were placed onto agar in 24-well microtiter plates and sprayed with aqueous test solutions prepared from 10,000 ppm DMSO stock solutions. After drying the leaf discs were infested with five L1 larvae. The samples were assessed for mortality, anti-feeding effect, and growth inhibition in comparison to untreated samples 3 days after infestation. Control of Spodoptera littoralis by a test sample is given when at least one of the categories mortality, anti-feedant effect, and growth inhibition is higher than the untreated sample.

Chilo suppressalis = experiment: Example B1: Chilo suppressalis (striped rice stemborer), artificial diet, L2 larvae; conditions: 144 h, application rate of 200 ppm, 6 days after infestation, read-out: control in at least one of the three categories (mortality, anti-feedant effect, or growth inhibition)
Procedure: 24-well microtiter plates with artificial diet were treated with aqueous test solutions prepared from 10,000 ppm DMSO stock solutions by pipetting. After drying, the plates were infested with L2 larvae (6-8 per well). The samples were assessed for mortality, anti-feeding effect, and growth inhibition in comparison to untreated samples 6 days after infestation. Control of Chilo suppressalis by a test sample is given when at least one of the categories mortality, anti-feedant effect, and growth inhibition is higher than the untreated sample.

Diabrotica balteata = experiment: Example B2: Diabrotica balteata (corn root worm), maize sprouts, L2 larvae; conditions: for percent control (mortality or growth inhibition) at 200 ppm: Diabrotica balteata, 96 h, application rate of 200 ppm, 4 days after infestation, read-out: control in at least one of the two categories (mortality or growth inhibition); for mortality at 50 ppm: Concentration 50 ppm, Diabrotica balteata (Example B32)
Procedure: Maize sprouts placed onto an agar layer in 24-well microtiter plates were treated with aqueous test solutions prepared from 10,000 ppm DMSO stock solutions by spraying. After drying, the plates were infested with L2 larvae (6 to 10 per well). The samples were assessed for mortality and growth inhibition in comparison to untreated samples 4 days after infestation.

Plutella xylostella = experiment: Example B4: Plutella xylostella (diamond back moth), artificial diet, eggs; conditions: for percent control (mortality or growth inhibition) at 200 ppm: Plutella xylostella, 192 h, application rate of 200 ppm, 8 days after infestation, read-out: control in at least one of the two categories (mortality or growth inhibition); for mortality at 50 ppm: Concentration 50 ppm, Plutella xylostella (Example B4)
Procedure: 24-well microtiter plates with artificial diet were treated with aqueous test solutions prepared from 10′000 ppm DMSO stock solutions by pipetting. After drying, Plutella eggs were pipetted through a plastic stencil onto a gel blotting paper and the plate was closed with it. The samples were assessed for mortality and growth inhibition in comparison to untreated samples 8 days after infestation.

SMILES	percent control (mortality, anti-feedant effect or growth inhibition) at 200 ppm (Spodoptera littoralis)	percent control (mortality, anti-feedant effect or growth inhibition) at 200 ppm (Chilo suppressalis)	percent control (mortality or growth inhibition) at 200 ppm (Diabrotica balteata)	percent control (mortality or growth inhibition) at 200 ppm (Plutella xylostella)	mortality at 50 ppm (Plutella xylostella)	mortality at 50 ppm (Diabrotica balteata)
C[C@H](NC(=O)c1cc(I)cc(C(F)(F)F)c1)c1nccnc1-c1cnccn1 [Compound E4, 3-iodo-N-[(1S)-1-(3-pyrazin-2-ylpyrazin-2-yl)ethyl]-5-(trifluoromethyl)benzamide]	≥ 80%	≥ 80%	≥ 80%	≥ 80%	–	–
C[C@H](NC(=O)c1cc(I)cc(I)c1)c1nccnc1-c1cnccn1 [Compound E5, 3,5-diiodo-N-[(1S)-1-(3-pyrazin-2-ylpyrazin-2-yl)ethyl]benzamide]	≥ 80%	–	≥ 80%	≥ 80%	–	–
C[C@H](NC(=O)c1cc(Br)cc(Br)c1)c1nccnc1-c1cnccn1 [Compound E6, 3,5-dibromo-N-[(1S)-1-(3-pyrazin-2-ylpyrazin-2-yl)ethyl]benzamide]	≥ 80%	–	≥ 80%	≥ 80%	–	–
C[C@H](NC(=O)c1cc(C(F)F)cc(C(F)(F)F)c1)c1nccnc1-c1cnccn1 [Compound E8, 3-(difluoromethyl)-N-[(1S)-1-(3-pyrazin-2-ylpyrazin-2-yl)ethyl]-5-(trifluoromethyl)benzamide]	≥ 80%	≥ 80%	≥ 80%	≥ 80%	–	–
C[C@@H](c1nccnc1-c1cnccn1)N(C)C(=O)c1cc(I)cc(C(F)(F)F)c1 [Compound E9, 3-iodo-N-methyl-N-[(1S)-1-(3-pyrazin-2-ylpyrazin-2-yl)ethyl]-5-(trifluoromethyl)benzamide]	≥ 80%	–	≥ 80%	–	–	–
C[C@@H](c1nccnc1-c1cnccn1)N(C)C(=O)c1cc(I)cc(I)c1 [Compound E10, 3,5-diiodo-N-methyl-N-[(1S)-1-(3-pyrazin-2-ylpyrazin-2-yl)ethyl]benzamide]	≥ 80%	–	≥ 80%	–	–	–
C[C@@H](c1nccnc1-c1cnccn1)N(C)C(=O)c1cc(C(F)F)cc(C(F)(F)F)c1 [Compound E13, 3-(difluoromethyl)-N-methyl-N-[(1S)-1-(3-pyrazin-2-ylpyrazin-2-yl)ethyl]-5-(trifluoromethyl)benzamide]	≥ 80%	–	≥ 80%	–	–	–
CC(NC(=O)c1cc(C(F)(F)F)cc(C(F)(F)F)c1)c1nccnc1-c1cnccn1 (centres unmarked) [Compound P1, N-[1-(3-pyrazin-2-ylpyrazin-2-yl)ethyl]-3,5-bis (trifluoromethyl)benzamide]	≥ 80%	≥ 80%	≥ 80%	≥ 80%	–	–
CC(NC(=O)c1cc(Br)nc(C2(C#N)CC2)c1)c1nccnc1-c1cnccn1 (centres unmarked) [Compound P3, 2-bromo-6-(1-cyanocyclopropyl)-N-[1-(3-pyrazin-2-ylpyrazin-2-yl)ethyl]pyridine-4-carboxamide]	≥ 80%	≥ 80%	≥ 80%	≥ 80%	–	–
CC(NC(=O)c1cc(C(F)(F)F)nc(C2(C#N)CC2)c1)c1nccnc1-c1cnccn1 (centres unmarked) [Compound P4]	≥ 80%	≥ 80%	≥ 80%	≥ 80%	–	–
CC(NC(=O)c1cc(Cl)cc(C(F)(F)F)c1)c1nccnc1-c1cnccn1 (centres unmarked) [Compound P6, 3-chloro-N-[1-(3-pyrazin-2-ylpyrazin-2-yl)ethyl]-5-(trifluoromethyl)benzamide]	≥ 80%	≥ 80%	–	≥ 80%	100%	–
CC(NC(=O)c1cc(Cl)cc(OC(F)(F)F)c1)c1nccnc1-c1cnccn1 (centres unmarked) [Compound P9, 3-chloro-N-[1-(3-pyrazin-2-ylpyrazin-2-yl)ethyl]-5-(trifluoromethoxy)benzamide]	–	≥ 80%	≥ 80%	≥ 80%	–	–
CC(NC(=O)c1cc(Br)cc(Br)c1)c1nccnc1-c1cnccn1 (centres unmarked) [Compound P15, 3,5-dibromo-N-[1-(3-pyrazin-2-ylpyrazin-2-yl)ethyl]benzamide]	–	–	≥ 80%	≥ 80%	–	–
CC(NC(=O)c1cc(C2CC2)cc(C(F)(F)F)c1)c1nccnc1-c1cnccn1 (centres unmarked) [Compound P19, 3-cyclopropyl-N-[1-(3-pyrazin-2-ylpyrazin-2-yl)ethyl]-5-(trifluoromethyl)benzamide]	–	≥ 80%	≥ 80%	≥ 80%	100%	–
CC(NC(=O)c1cc(C(F)(F)F)cc(S(=O)(=O)C(F)(F)F)c1)c1nccnc1-c1cnccn1 (centres unmarked) [Compound P22, N-[1-(3-pyrazin-2-ylpyrazin-2-yl)ethyl]-3-(trifluoromethyl)-5-(trifluoromethylsulfonyl)benzamide]	–	≥ 80%	–	≥ 80%	–	–
CC(NC(=O)c1cc(I)cc(C(F)(F)F)c1)c1nccnc1-c1cnccn1 (centres unmarked) [Compound P23, 3-iodo-N-[1-(3-pyrazin-2-ylpyrazin-2-yl)ethyl]-5-(trifluoromethyl)benzamide]	≥ 80%	–	≥ 80%	≥ 80%	–	–
CC(NC(=O)c1cc(Cl)cc(SC(F)(F)F)c1)c1nccnc1-c1cnccn1 (centres unmarked) [Compound P28, 3-chloro-N-[1-(3-pyrazin-2-ylpyrazin-2-yl)ethyl]-5-(trifluoromethylsulfanyl)benzamide]	≥ 80%	–	≥ 80%	≥ 80%	–	–
CC(c1nccnc1-c1cnccn1)N(C)C(=O)c1cc(Cl)cc(C(F)(F)F)c1 (centres unmarked) [Compound P30, 3-chloro-N-methyl-N-[1-(3-pyrazin-2-ylpyrazin-2-yl)ethyl]-5-(trifluoromethyl)benzamide]	–	≥ 80%	≥ 80%	≥ 80%	–	–
CC(NC(=O)c1cc(Cl)cc(S(=O)(=O)C(F)(F)F)c1)c1nccnc1-c1cnccn1 (centres unmarked) [Compound P33, 3-chloro-N-[1-(3-pyrazin-2-ylpyrazin-2-yl)ethyl]-5-(trifluoromethylsulfonyl)benzamide]	–	≥ 80%	–	≥ 80%	–	–
CC(NC(=O)c1cc(Br)cc(Br)c1)c1nccnc1-c1cnc(Cl)cn1 (centres unmarked) [Compound P36, 3,5-dibromo-N-[1-[3-(5-chloropyrazin-2-yl)pyrazin-2-yl]ethyl]benzamide]	≥ 80%	–	≥ 80%	≥ 80%	–	–
CC(NC(=O)c1cc(C(F)(F)F)cc(S(C)(=O)=O)c1)c1nccnc1-c1cnc(C#N)cn1 (centres unmarked) [Compound P39, N-[1-[3-(5-cyanopyrazin-2-yl)pyrazin-2-yl]ethyl]-3-methylsulfonyl-5-(trifluoromethyl)benzamide]	≥ 80%	≥ 80%	–	≥ 80%	–	–
CC(NC(=O)c1cc(Cl)cc(C(F)(F)F)c1)c1nccnc1-c1ccccn1 (centres unmarked) [Example 1 of WO 2021/068179, reference compound]	–	–	–	–	0%	–
CC(NC(=O)c1cc(C(F)F)cc(C(F)(F)F)c1)c1nccnc1-c1ncccn1 (centres unmarked) [P22 of WO 2020/070049, reference compound]	–	–	–	–	–	80%
CC(NC(=O)c1cc(C(F)(F)F)cc(C2(C#N)CC2)c1)c1nccnc1-c1ncccn1 (centres unmarked) [P25 of WO 2020/201398, reference compound]	–	–	–	–	–	50%
CC(NC(=O)c1cc(C2CC2)cc(C(F)(F)F)c1)c1nccnc1-c1ccccn1 (centres unmarked) [P33 of WO 2020/201398, reference compound]	–	–	–	–	50%	–
